The text below walks through data of patent publication US11512079B2, “Heterocycle substituted pyridine derivative antifungal agents” (Amplyx Pharmaceuticals, Inc., priority 2017, dated 2022).

Values after ≈ are worked out from the molar mass of the structure shown. Some results are limits rather than exact numbers.

The subject of one assay is C. neoformans strain H99. Description: Murine model of cryptococcal meningitis, dosing in the presence of the pan-CYP inhibitor ABT, CD-1 mice. In kind it is in vivo, Cryptococcus neoformans. Conditions: for reduction of CFU in brain vs untreated control / reduction of CFU in lung vs untreated control: preliminary experiment, 100 mg/kg ABT PO 2 h prior to each dose, n=5. On the procedure: Efficacy of exemplary compounds in a murine model of cryptococcal meningitis when dosed in the presence of the pan-CYP inhibitor ABT. […] 100 mg/kg ABT was administered orally to male CD-1 mice 2 h prior to compound administration. Mice were injected with 6.9×10^4 CFU C. neoformans strain H99 per mouse via lateral tail vein at T=0 h. Treatment with each prodrug was initiated about 1 h post-infection by IP administration and continued daily for 7 days with 100 mg/kg ABT administered orally 2 h prior to each dose of compound. The mean log10 CFU/g brain and lung counts in untreated control mice were 7.83±0.09 and 4.67±0.88, respectively (FIG. 1).
[…] A 60 mg/kg dose QD without ABT was also evaluated as a control.
Cryptococcal meningitis model. C. neoformans strain H99 was grown in YPD broth at 30° C. on a shaker (220 rpm) for 24 h, centrifuged (1980 ref) and washed twice in PBS, resuspended in PBS, and quantified by hemacytometric count. CD-1 male mice were infected with ˜5×10^4 CFU per mouse via lateral tail vein injection of 100 μL. Mice were weighed, and treatment was within 1 h after infection. Treatments were administered daily for seven days. Mice were weighed daily and observed for acute and chronic adverse symptoms. Mice were sacrificed on day 8, and brain and left lung were homogenized and cultured for quantitative determination of tissue burden (CFU per gram of tissue). Tissues were homogenized for 25 seconds in […] phosphate buffered saline using two 6.5 mm steel beads and a Mini-Beadbeater 16 (Biospec Products, Inc., Bartlesville, Okla.), and serially diluted in 10-fold steps. Aliquots ([…]) of homogenate were plated and incubated for 3 to 7 days at 37° C. Fungal burden data were log10 transformed and evaluated using Kruskal-Wallis tests with Dunn's Multiple Comparison Test for Post-hoc analysis (Prism 5; GraphPad Software, Inc., San Diego, Calif.). A P value of ≤0.05 is considered statistically significant.

A further assay relates to Candida albicans 90028. Description: In vitro antifungal assay (Example IX), microdilution broth, MIC. In kind it is cell-based. The settings on record: minimum inhibitory concentration (≥50% inhibition), 35° C., 40-48 h, RPMI1640. The method, boiled down:
(§1)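 Yeast inocula (2.5×10^3 cells/mL, RPMI1640) were exposed to twofold compound series reaching 2-0.0019 μg/mL final, per CLSI yeast methodology. Incubation at 35° C. ran 40-48 h for Candida albicans 90028 and 72 h for Cryptococcus neoformans H99. MIC endpoints were confirmed by absorbance at 600 nm.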
On the technique in general: In broth dilution the organism is exposed to a series of concentrations in liquid medium.

For assay [1], the system named is Cryptococcus neoformans H99. The assay is described as above. In kind it is cell-based. The settings on record: minimum inhibitory concentration (≥50% inhibition), 35° C., 72 h, RPMI1640. The method, boiled down:
as §1

A further assay has as its system Cryptococcus gattii. The assay is described as above. In kind it is cell-based. Conditions: minimum inhibitory concentration (≥50% inhibition), 35° C., 72 h (Cryptococcus), RPMI1640. The method, boiled down: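 MIC was determined from OD600 after 72 h at 35 °C for Cryptococcus, in RPMI1640 inoculated at 2.5×10^3 cells/mL. Compounds were tested as a 2-fold series from 2 to 0.0019 μg/mL final, added from DMSO intermediates at a 100-fold dilution.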

Assay [2] relates to Aspergillus fumigatus MYA3626. Description: In vitro antifungal assay (Example IX), microdilution broth, MEC. In kind it is cell-based. The settings on record: minimum effective concentration (shortening of hyphae), 35° C., 40-48 h, RPMI1640. The method, boiled down: (§2)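 Read-out is the minimum effective concentration: lowest compound level causing shorter hyphae than in DMSO controls, echinocandin-style. Broth microdilution used conidia or spores harvested from agar plates, cleared of mycelium and clumps, at a final 1-2×10^4 spores/mL in RPMI1640.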

Assay [3] relates to Rhizomucor pusillus 46342. The assay is described as above. In kind it is cell-based. Conditions: minimum effective concentration (shortening of hyphae), 35° C., 40-48 h, RPMI1640. The method in brief: as §2
Setting [4] is: in the presence of ABT, 20 mg/kg Ex. 172 prodrug, 60 mg/kg Ex. 173 prodrug, 80 mg/kg Compound 1.

On to `Nc1c(-c2cc(Cc3ccc(OCc4ccccc4)cc3)no2)ccc[n+]1COP(=O)([O-])O`, for which, in the assay on C. neoformans strain H99 (setting [4]), the “log10 CFU/g brain reductions at doses of similar AUC (approximately 80 μg·h/mL)” value stood at 1.45 log10 CFU/g and the “log10 CFU/g lung reductions at doses of similar AUC (approximately 80 μg·h/mL)” value came to 1.55 log10 CFU/g. Besides, in the assay with C. neoformans strain H99 (34 mg/kg QD IP 7 days), the “reduction of CFU in brain vs untreated control” value was found to be 1.66 log10 CFU/g and the “reduction of CFU in lung vs untreated control” value turned out to be 1.07 log10 CFU/g. Besides, in the assay on C. neoformans strain H99 (85 mg/kg QD IP 7 days), the “reduction of CFU in brain vs untreated control” value was 2.72 log10 CFU/g and the “reduction of CFU in lung vs untreated control” value was determined as 3.28 log10 CFU/g.

For `Nc1ncccc1-c1cc(Cc2ccc(Oc3nc(Cl)cs3)cc2)no1` [compound 240, 3-(3-(4-((4-chlorothiazol-2-yl)oxy)benzyl)isoxazol-5-yl)pyridin-2-amine], the minimum inhibitory concentration (MIC) lay in the range of 0.1 to 1 µg/mL (≈ 0.26 to 2.6 µM) in the assay with Candida albicans 90028, 0.01 to 0.1 µg/mL (≈ 0.026 to 0.26 µM) in assay [1] and 0.01 to 0.1 µg/mL (≈ 0.026 to 0.26 µM) against Cryptococcus gattii. Further, the minimal effective concentration in assay [2] and in assay [3] was 0.1 to 1 µg/mL in each case.

In the case of `Nc1ncccc1-c1cc(Cc2ccc(Oc3nc(F)c(F)cc3F)cc2)no1` [compound 241, 3-(3-(4-((3,5,6-trifluoropyridin-2-yl)oxy)benzyl)isoxazol-5-yl)pyridin-2-amine], the minimal inhibitory concentration (MIC) in the assay on Candida albicans 90028 lay in the range of 0.1 to 1 µg/mL (≈ 0.251 to 2.51 µM); in assay [1], 0.01 to 0.1 µg/mL (≈ 0.0251 to 0.251 µM); in the assay on Cryptococcus gattii, 0.01 to 0.1 µg/mL (≈ 0.0251 to 0.251 µM). In addition, the minimal effective concentration in assay [2] lay within 0.01 to 0.1 µg/mL; in assay [3] it was 0.1 to 1 µg/mL.

On to `Nc1ncccc1-c1cc(Cc2ccc(Oc3ncc(F)cc3F)cc2)no1` [compound 242, 3-(3-(4-((3,5-difluoropyridin-2-yl)oxy)benzyl)isoxazol-5-yl)pyridin-2-amine], for which the minimal inhibitory concentration (MIC) is 0.01 to 0.1 µg/mL (≈ 0.0263 to 0.263 µM) in the assay on Candida albicans 90028, 0.01 to 0.1 µg/mL (≈ 0.0263 to 0.263 µM) in assay [1] and at most 0.01 µg/mL in the assay on Cryptococcus gattii. The results for the minimal effective concentration in assay [2] and in assay [3] were 0.01 to 0.1 µg/mL and 0.1 to 1 µg/mL, respectively.

As for `Nc1ncccc1-c1cc(Cc2ccc(Oc3ncccn3)cc2)no1` [compound 243, 3-(3-(4-(pyrimidin-2-yloxy)benzyl)isoxazol-5-yl)pyridin-2-amine], the MIC (in the assay with Candida albicans 90028; in assay [1]; against Cryptococcus gattii) was 0.1 to 1 µg/mL (≈ 0.29 to 2.9 µM) throughout. For the same compound, the minimal effective concentration in assay [2] is 0.1 to 1 µg/mL; in assay [3] it was above 1 µg/mL.

For `Nc1ncccc1-c1cc(Cc2ccc(Nc3cc(F)ccc3F)nc2)no1` [compound 244, 5-((5-(2-aminopyridin-3-yl)isoxazol-3-yl)methyl)-N-(2,5-difluorophenyl)pyridin-2-amine], the minimal inhibitory concentration (MIC) (against Candida albicans 90028; in assay [1]; in the assay on Cryptococcus gattii) was 0.1 to 1 µg/mL (≈ 0.264 to 2.64 µM) each time. For the same compound, the minimal effective concentration in assay [2] is 0.1 to 1 µg/mL; in assay [3], above 1 µg/mL.

Turning to `Nc1ncccc1-c1cc(Cc2ccc(Nc3ccc(F)c(F)c3F)nc2)no1` [compound 245, 5-((5-(2-aminopyridin-3-yl)isoxazol-3-yl)methyl)-N-(2,3,4-trifluorophenyl)pyridin-2-amine], the MIC (with Candida albicans 90028; in assay [1]; in the assay with Cryptococcus gattii) was 0.1 to 1 µg/mL (≈ 0.252 to 2.52 µM) throughout. Besides, the minimal effective concentration is 0.1 to 1 µg/mL in assay [2] and above 1 µg/mL in assay [3].

For `Nc1ncccc1-c1cc(Cc2ccc(Oc3ccc(F)cn3)cc2)no1` [compound 246, 3-(3-(4-((5-fluoropyridin-2-yl)oxy)benzyl)isoxazol-5-yl)pyridin-2-amine], the MIC in the assay on Candida albicans 90028 lay in the range of 0.1 to 1 µg/mL (≈ 0.276 to 2.76 µM); in assay [1], 0.01 to 0.1 µg/mL (≈ 0.0276 to 0.276 µM); in the assay on Cryptococcus gattii, 0.1 to 1 µg/mL (≈ 0.276 to 2.76 µM). Also, the values for the minimal effective concentration in assay [2] and in assay [3] were 0.01 to 0.1 µg/mL and 0.1 to 1 µg/mL, respectively.

On to `Nc1ncccc1-c1cc(Cc2cnc(Nc3ccccc3F)c(F)c2)no1` [compound 250, 5-((5-(2-aminopyridin-3-yl)isoxazol-3-yl)methyl)-3-fluoro-N-(2-fluorophenyl)pyridin-2-amine], for which the minimal inhibitory concentration (MIC) in the assay with Candida albicans 90028 was in the range of 0.01 to 0.1 µg/mL (≈ 0.0264 to 0.264 µM); in assay [1], 0.01 to 0.1 µg/mL (≈ 0.0264 to 0.264 µM); with Cryptococcus gattii, 0.1 to 1 µg/mL (≈ 0.264 to 2.64 µM). Further, the results for the minimal effective concentration in assay [2] and in assay [3] were 0.01 to 0.1 µg/mL and 0.1 to 1 µg/mL, respectively.

Regarding `Nc1ncccc1-c1cc(Cc2cnc(Nc3c(F)cccc3F)c(F)c2)no1` [compound 253, 5-((5-(2-aminopyridin-3-yl)isoxazol-3-yl)methyl)-N-(2,6-difluorophenyl)-3-fluoropyridin-2-amine], the minimal inhibitory concentration (MIC) (against Candida albicans 90028; in assay [1]; against Cryptococcus gattii) was 0.1 to 1 µg/mL (≈ 0.252 to 2.52 µM) in each case. Moreover, the minimal effective concentration was 0.1 to 1 µg/mL in assay [2] and above 1 µg/mL in assay [3].

On to `Nc1ncccc1-c1cc(Cc2cnc(OCc3ccccc3)c(F)c2)no1` [compound 257, 3-(3-((6-(benzyloxy)-5-fluoropyridin-3-yl)methyl)isoxazol-5-yl)pyridin-2-amine], for which the minimal inhibitory concentration (MIC) is 0.01 to 0.1 µg/mL (≈ 0.0266 to 0.266 µM) against Candida albicans 90028, 0.1 to 1 µg/mL (≈ 0.266 to 2.66 µM) in assay [1] and above 1 µg/mL in the assay on Cryptococcus gattii. Further, the minimal effective concentration in assay [2] lay within 0.01 to 0.1 µg/mL; in assay [3], 0.1 to 1 µg/mL.

As to `Nc1ncccc1-c1cc(Cc2ccc(Oc3cccc(F)n3)c(F)c2)no1` [compound 258, 3-(3-(3-fluoro-4-((6-fluoropyridin-2-yl)oxy)benzyl)isoxazol-5-yl)pyridin-2-amine], the MIC fell in the range of 0.1 to 1 µg/mL (≈ 0.263 to 2.63 µM) with Candida albicans 90028, 0.01 to 0.1 µg/mL (≈ 0.0263 to 0.263 µM) in assay [1] and 0.1 to 1 µg/mL (≈ 0.263 to 2.63 µM) with Cryptococcus gattii. For the same compound, the results for the minimal effective concentration in assay [2] and in assay [3] were 0.01 to 0.1 µg/mL and 0.1 to 1 µg/mL, respectively.

Take `Nc1ncccc1-c1cc(Cc2ccc(Cc3cc(F)nc(F)c3)cc2)no1` [compound 261, 3-(3-(4-((2,6-difluoropyridin-4-yl)methyl)benzyl)isoxazol-5-yl)pyridin-2-amine]: the minimum inhibitory concentration (MIC) (with Candida albicans 90028; in assay [1]; in the assay with Cryptococcus gattii) was 0.1 to 1 µg/mL (≈ 0.264 to 2.64 µM) each time. Further, the minimal effective concentration in assay [2] and in assay [3] was 0.1 to 1 µg/mL each time.

As a reminder, the MIC is the lowest concentration found to suppress growth. Read a low MIC as a more susceptible organism. Broadly, the minimal effective concentration is the smallest amount tested that counted as effective.
